Results reported in ChEMBL document CHEMBL4811220, “Investigation of the in vitro and in vivo efficacy of peptoid-based HDAC inhibitors with dual-stage antiplasmodial activity” (Eur J Med Chem, 2021).
Calls of active or inactive are those of the source. The rule behind the calls is not given here.

Tests used:
Plasmodium falciparum [1] = test: microbe, parasite or virus in culture; format: functional, organism-based; conditions: 3D7, Erythrocyte
HepG2 = test: Cytotoxicity against human HepG2-A16-CD81EGFP cells assessed as inhibition of cell growth incubated for 24 hrs followed by medium transfer and incubation in multimode plate for 48 hrs by CellTiterGlo reagent based luminescence assay
[2] = Selectivity index, ratio of IC50 for cytotoxicity against human HepG2-A16-CD81EGFP cells to IC50 for antiplasmodial activity against drug-sensitive asexual intraerythrocytic stage of Plasmodium falciparum 3D7 infected in human O+ erythrocytes
Plasmodium berghei [3] = test: microbe, parasite or virus in culture; format: functional, organism-based
[4] = Selective index, ratio of IC50 for human HepG2-A16-CD81EGFP cells to IC50 for antiplasmodial activity against liver stage exo-erythrocytic forms of Plasmodium berghei sporozoites infected in human HepG2-A16-CD81EGFP cells
Histone deacetylase 1 = Histone deacetylase 1 (Homo sapiens, UniProt Q13547)
Description: Inhibition of C-terminal FLAG/His-tagged human recombinant HDAC1 (1 to 482 residues) expressed in baculovirus infected Sf9 cells using ZMAL (Z-Lys(Ac)-AMC) as fluorogenic substrate incubated for 90 mins by fluorescence based assay

[5] = molecular target: T1, Protein deacetylase HDAC6 (Homo sapiens, UniProt Q9UBN7); test: biochemical
T1 sequence (Q9UBN7 whole entry): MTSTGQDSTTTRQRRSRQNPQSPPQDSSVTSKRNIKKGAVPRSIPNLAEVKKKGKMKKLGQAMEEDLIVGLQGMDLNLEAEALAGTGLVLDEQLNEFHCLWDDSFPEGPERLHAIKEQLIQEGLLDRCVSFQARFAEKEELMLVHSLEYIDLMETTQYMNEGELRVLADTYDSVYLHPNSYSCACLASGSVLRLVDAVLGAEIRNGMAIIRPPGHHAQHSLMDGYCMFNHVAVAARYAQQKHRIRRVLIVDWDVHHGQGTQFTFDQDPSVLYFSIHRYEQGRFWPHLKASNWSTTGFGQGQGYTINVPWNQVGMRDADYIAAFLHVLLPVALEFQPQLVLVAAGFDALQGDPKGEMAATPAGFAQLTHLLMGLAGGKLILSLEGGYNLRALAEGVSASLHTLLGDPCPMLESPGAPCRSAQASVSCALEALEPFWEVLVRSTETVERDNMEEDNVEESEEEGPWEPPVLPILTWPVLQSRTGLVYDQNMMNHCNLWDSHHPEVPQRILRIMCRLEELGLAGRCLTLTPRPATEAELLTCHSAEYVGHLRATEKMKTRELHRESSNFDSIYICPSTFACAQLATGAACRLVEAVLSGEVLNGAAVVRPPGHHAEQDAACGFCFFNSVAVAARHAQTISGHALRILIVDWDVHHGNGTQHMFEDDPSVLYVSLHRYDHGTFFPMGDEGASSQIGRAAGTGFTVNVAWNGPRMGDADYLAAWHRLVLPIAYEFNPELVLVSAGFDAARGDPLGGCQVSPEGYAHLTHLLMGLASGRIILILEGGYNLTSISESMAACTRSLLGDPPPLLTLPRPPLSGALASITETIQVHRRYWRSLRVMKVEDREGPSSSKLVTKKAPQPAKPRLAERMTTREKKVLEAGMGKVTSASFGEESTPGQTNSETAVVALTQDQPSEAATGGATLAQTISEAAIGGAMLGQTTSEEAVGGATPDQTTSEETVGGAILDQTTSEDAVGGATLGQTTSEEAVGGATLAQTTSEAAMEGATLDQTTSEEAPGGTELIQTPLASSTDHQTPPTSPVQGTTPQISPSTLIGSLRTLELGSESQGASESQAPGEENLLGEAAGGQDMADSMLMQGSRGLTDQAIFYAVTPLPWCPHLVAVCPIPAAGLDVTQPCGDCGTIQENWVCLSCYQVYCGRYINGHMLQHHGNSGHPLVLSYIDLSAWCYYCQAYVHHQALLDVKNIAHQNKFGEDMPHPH
Description: Inhibition of N-terminal GST-tagged full length human recombinant HDAC6 expressed in baculovirus infected Sf9 cells using ZMAL (Z-Lys(Ac)-AMC) fluorogenic substrate incubated for 90 mins by fluorescence based assay

[6] = Intrinsic clearance in mouse liver microsomes measured upto 40 mins by LC-MS/MS analysis
[7] = Intrinsic clearance in human liver microsomes measured upto 40 mins by LC-MS/MS analysis; format: ADME, Microsome; conditions: read-out: CLH
Plasmodium falciparum [8] = test: Resistance index, ratio of IC50 for antiplasmodial activity against multidrug-resistant asexual intraerythrocytic stage of Plasmodium falciparum Dd2 to IC50 for antiplasmodial activity against drug-sensitive asexual intraerythrocytic stage of Plasmodium falciparum 3D7 infected in human O+ erythrocytes by [3H]-hypoxanthine incorporation assay; format: functional
[9] = Half life in mouse liver microsomes measured upto 40 mins by LC-MS/MS analysis
[10] = Half life in human liver microsomes measured upto 40 mins by LC-MS/MS analysis; format: ADME, Microsome
Plasmodium falciparum [11] = test: Antiplasmodial activity against multidrug-resistant asexual intraerythrocytic stage of Plasmodium falciparum Dd2 assessed as inhibition of parasite growth incubated for 48 hrs followed by addition of [3H]hypoxanthine for 24 hrs by [3H]hypoxanthine incorporation assay; format: functional, organism-based
Plasmodium berghei [12] = test: Antimalarial activity against Plasmodium berghei QIMR infected in BALB/c mouse assessed as reduction in peripheral blood parasitemia at 25 mg/kg, po bid for 4 days starting from 2 hrs post infection and measured on 4 to 6 days post-infection by Giemsa staining based microscopic analysis relative to control; format: functional; conditions: time 4-6 day
[13] = system: Plasmodium falciparum 3D7; test: Inhibition of HDAC in trophozite-stage of Plasmodium falciparum 3D7 infected in erythrocytes assessed as hyperacetylation of histone H4 at lysine residue at 5 x IC50 incubated for 3 hrs by western blot analysis; format: cell-based
[14] = system: Plasmodium falciparum 3D7; test: Inhibition of HDAC in trophozite-stage of Plasmodium falciparum 3D7 infected in erythrocytes assessed as hyperacetylation of histone H4 at lysine residue at 5 x IC50 incubated for 3 hrs by western blot analysis relative to control; format: cell-based

Sequence of Histone deacetylase 1 (Q13547 whole entry): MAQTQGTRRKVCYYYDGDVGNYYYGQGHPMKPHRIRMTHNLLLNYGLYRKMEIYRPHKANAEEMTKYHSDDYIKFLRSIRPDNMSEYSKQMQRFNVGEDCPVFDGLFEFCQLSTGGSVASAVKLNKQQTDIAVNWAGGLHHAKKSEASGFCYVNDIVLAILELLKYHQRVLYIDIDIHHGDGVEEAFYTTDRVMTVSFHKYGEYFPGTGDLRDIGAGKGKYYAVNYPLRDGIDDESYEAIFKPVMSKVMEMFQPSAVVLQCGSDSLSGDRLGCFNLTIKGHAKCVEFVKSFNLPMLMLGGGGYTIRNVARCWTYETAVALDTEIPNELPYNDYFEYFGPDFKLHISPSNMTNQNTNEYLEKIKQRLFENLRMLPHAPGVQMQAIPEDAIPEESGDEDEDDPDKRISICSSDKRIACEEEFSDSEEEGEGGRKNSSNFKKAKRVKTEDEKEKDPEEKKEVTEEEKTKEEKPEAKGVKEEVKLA

Row | SMILES | IC50 (Plasmodium falciparum [1]) | IC50 (HepG2) | selectivity ratio [2] | IC50 (Plasmodium berghei [3]) | selectivity ratio [4] | IC50 (Histone deacetylase 1) | IC50 [5] | microsomal CLint at 40 min [6] | microsomal CLint [7] | Ratio IC50 (Plasmodium falciparum [8]) | half-life at 40 min ([9]; liver microsomes) | half-life [10] | IC50 (Plasmodium falciparum [11]) | inhibition in vivo at 25 mg/kg (Plasmodium berghei [12]) | inhibition [13] | fold change (FC) [14] | half-life at 40 min ([9]; microsomes)
1 | CC(C)c1ccc(CC(=O)N(CC(=O)NC2CCCCC2)Cc2ccc(C(=O)NO)cc2)cc1 | 215 nM | 25100 nM | 117 | 2020 nM | 12 | 2030 nM | 40 nM | – | – | – | – | – | – | – | – | – | –
2 | O=C(CN(Cc1ccc(C(=O)NO)cc1)C(=O)c1cccc2ccccc12)NCc1ccccc1 | 34 nM | 12800 nM | 376 | 630 nM | 20 | 130 nM | 10 nM | 87 µL/min/mg | 41 µL/min/mg | 0.4 | 19.3 min | 41.4 min | 14 nM | 25.9% | Active | – | –
3 | Cc1cc(C)cc(C(=O)N(CC(=O)N(C)C)Cc2ccc(C(=O)NO)cc2)c1 | 1040 nM | > 50000 nM | > 48 | 8250 nM | – | 8000 nM | 230 nM | – | – | – | – | – | – | – | – | – | –
4 | CC(C)c1ccc(NC(=O)CN(Cc2ccc(C(=O)NO)cc2)C(=O)Cc2ccccc2)cc1 | – | – | – | – | – | – | – | 38 µL/min/mg | 72 µL/min/mg | – | 44.3 min | 23.5 min | – | – | – | – | –
5 | Cc1ccccc1C(=O)N(CC(=O)NCc1ccccc1)Cc1ccc(C(=O)NO)cc1 | 70 nM | 9620 nM | 137 | 300 nM | 32 | 280 nM | 30 nM | – | – | 0.3 | – | – | 21 nM | – | – | 2 | –
6 | CC(C)c1ccc(C(=O)N(Cc2ccc(C(=O)NO)cc2)C(C)(C)C(=O)NCc2ccccc2)cc1 | 142 nM | > 50000 nM | > 352 | 8670 nM | > 6 | 280 nM | 60 nM | – | – | – | – | – | – | – | – | – | –
7 | Cc1ccc(C(=O)N(CC(=O)NC2CCCCC2)Cc2ccc(C(=O)NO)cc2)c(C)c1 | 8 nM | 8330 nM | 1040 | 60 nM | 139 | 260 nM | 40 nM | 94 µL/min/mg | 139 µL/min/mg | 0.5 | 17.9 min | 12.2 min | 4 nM | 31% | inactive | – | –
8 | CC(C)NCC(O)COc1cccc2ccccc12 (stereo unspecified) [PROPRANOLOL] | – | – | – | – | – | – | – | – | – | – | – | – | – | – | – | – | 54.3 min
9 | CC(C)c1ccc(C(=O)N(CC(=O)NC23CC4CC(CC(C4)C2)C3)Cc2ccc(C(=O)NO)cc2)cc1 | 28 nM | 4320 nM | 154 | 340 nM | 13 | 300 nM | 250 nM | – | – | 0.2 | – | – | 6 nM | – | – | – | –
10 | Cc1cc(C)cc(C(=O)N(CC(=O)N2CCCCC2)Cc2ccc(C(=O)NO)cc2)c1 | 509 nM | 35000 nM | 69 | 6560 nM | 5 | 4050 nM | 130 nM | – | – | – | – | – | – | – | – | – | –
11 | Cc1ccc(C(=O)N(CC(=O)NCc2ccccc2)Cc2ccc(C(=O)NO)cc2)c(C)c1 | 24 nM | 3710 nM | 155 | 160 nM | 23 | 60 nM | 60 nM | 38 µL/min/mg | 86 µL/min/mg | 0.1 | 44.8 min | 19.7 min | 3 nM | 17.6% | – | 2 | –
